Results taken from PubChem BioAssay AID248 (DTP/NCI, 2004).
Toxic doses and inconclusive results are not listed. Cut-off read from the data, not from the text of the source: active = T/C of 150% or more; inactive = T/C below 125%.

Tested on: L1210 leukemia ip in BDF1 mice, survival T/C
Experiment: NCI In Vivo Anticancer Drug Screen. Data for tumor model L1210 Leukemia (intraperitoneal) in B6D2F1 (BDF1) mice
Settings: endpoint: mean survival time, higher = longer survival
In short: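 Tumor cells were implanted, animals were treated, and survival was followed. The result divides the treated measurement by the vehicle-control measurement.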

[1] = dose: 100.0 mg/kg/injection, schedule: Q01DX009 (ip), vehicle: saline with Tween-80
[2] = dose: 200.0 mg/kg/injection, schedule: Q01DX009 (ip), vehicle: saline with Tween-80
[3] = dose: 100.0 mg/kg/injection, schedule: Q04DX003 (ip), vehicle: Klucel (hydroxypropylcellulose) (HPC)
[4] = dose: 200.0 mg/kg/injection, schedule: Q01DX009 (ip), vehicle: Klucel (hydroxypropylcellulose) (HPC)
[5] = dose: 200.0 mg/kg/injection, schedule: Q04DX003 (ip), vehicle: Klucel (hydroxypropylcellulose) (HPC)
[6] = dose: 400.0 mg/kg/injection, schedule: Q04DX003 (ip), vehicle: Klucel (hydroxypropylcellulose) (HPC)
[7] = dose: 100.0 mg/kg/injection, schedule: Q01DX001 (ip), vehicle: saline
[8] = dose: 200.0 mg/kg/injection, schedule: Q01DX001 (ip), vehicle: saline
[9] = dose: 400.0 mg/kg/injection, schedule: Q01DX001 (ip), vehicle: saline
[10] = dose: 100.0 mg/kg/injection, schedule: Q01DX009 (ip), vehicle: Klucel (hydroxypropylcellulose) (HPC)
[11] = dose: 100.0 mg/kg/injection, schedule: Q01DX001 (ip), vehicle: saline with Tween-80
[12] = dose: 200.0 mg/kg/injection, schedule: Q01DX001 (ip), vehicle: saline with Tween-80
[13] = dose: 400.0 mg/kg/injection, schedule: Q01DX001 (ip), vehicle: saline with Tween-80
[14] = dose: 50.0 mg/kg/injection, schedule: Q01DX009 (ip), vehicle: Klucel (hydroxypropylcellulose) (HPC)

Measured: T/C

O=C(Nc1ccc(F)cc1)c1ccc([N+](=O)[O-])cc1
inactive: dose: 100.0 mg/kg/injection, schedule: Q04DX002 (ip), vehicle: Klucel (hydroxypropylcellulose) (HPC) 95 % of control | dose: 200.0 mg/kg/injection, schedule: Q04DX002 (ip), vehicle: Klucel (hydroxypropylcellulose) (HPC) 95 % of control | dose: 400.0 mg/kg/injection, schedule: Q04DX002 (ip), vehicle: Klucel (hydroxypropylcellulose) (HPC) 92 % of control

Cc1cc2c3ccccc3nc(C(F)(F)F)n2n1
inactive: [1] 97 % of control | [2] 103 % of control | dose: 400.0 mg/kg/injection, schedule: Q01DX009 (ip), vehicle: saline with Tween-80 95 % of control

[CH3][Sn]([CH3])([CH3])[O]C(=O)CCl
inactive: dose: 0.78 mg/kg/injection, schedule: Q01DX009 (ip), vehicle: Klucel (hydroxypropylcellulose) (HPC) 97 % of control | dose: 0.78 mg/kg/injection, schedule: Q04DX002 (ip), vehicle: Klucel (hydroxypropylcellulose) (HPC) 97 % of control | dose: 1.56 mg/kg/injection, schedule: Q01DX009 (ip), vehicle: Klucel (hydroxypropylcellulose) (HPC) 87 % of control | dose: 1.56 mg/kg/injection, schedule: Q04DX002 (ip), vehicle: Klucel (hydroxypropylcellulose) (HPC) 93 % of control | dose: 3.12 mg/kg/injection, schedule: Q04DX002 (ip), vehicle: Klucel (hydroxypropylcellulose) (HPC) 93 % of control

C/C=C(/Cl)c1c(C)cc(C)c(CC(=O)O)c1C
inactive: [3] 92 % of control | dose: 130.0 mg/kg/injection, schedule: Q01DX009 (ip), vehicle: Klucel (hydroxypropylcellulose) (HPC) 110 % of control | [4] 114 % of control | [5] 90 % of control | [6] 105 % of control

COc1cc(OC)cc(OC)c1
inactive: [3] 100 % of control | [5] 105 % of control | [6] 97 % of control

CCCNC(=O)Nc1ccc(C(=O)OCC(C)C)cc1
inactive: [1] 95 % of control | [2] 93 % of control

CC#CC1(O)CCC2C3CC(C)C4CC(=O)CCC4(C)C3CCC21C (stereo not given)
inactive: dose: 146.0 mg/kg/injection, schedule: Q01DX Z (sc), vehicle: steriod suspending solution 108 % of control | dose: 222.0 mg/kg/injection, schedule: Q01DX Z (sc), vehicle: steriod suspending solution 112 % of control | dose: 333.0 mg/kg/injection, schedule: Q01DX Z (sc), vehicle: steriod suspending solution 112 % of control | dose: 500.0 mg/kg/injection, schedule: Q01DX Z (sc), vehicle: steriod suspending solution 106 % of control

Oc1ccc(O)c2c1C1C=CC2CC1
inactive: [7] 96 % of control | [8] 105 % of control | [9] 98 % of control

CCOC(=O)c1cnc(=O)[nH]c1Nc1ccccc1Cl
inactive: [3] 94 % of control | [5] 101 % of control | [6] 90 % of control

O=C(Cc1ccccc1[N+](=O)[O-])NCCc1ccc2c(c1)OCO2
inactive: dose: 100.0 mg/kg/injection, schedule: Q01DX001 (ip), vehicle: other 86 % of control | dose: 200.0 mg/kg/injection, schedule: Q01DX001 (ip), vehicle: other 89 % of control | dose: 400.0 mg/kg/injection, schedule: Q01DX001 (ip), vehicle: other 89 % of control

CCCCCCCCc1ccc(OC(C)OCCOCCOCC)cc1 (stereo not given)
inactive: dose: 100.0 mg/kg/injection, schedule: Q04DX002 (ip), vehicle: saline 88 % of control | dose: 200.0 mg/kg/injection, schedule: Q04DX002 (ip), vehicle: saline 88 % of control | dose: 400.0 mg/kg/injection, schedule: Q04DX002 (ip), vehicle: saline 98 % of control

Cc1cccc(C)c1NC(=O)Nc1ccc(Cl)cc1
inactive: [10] 97 % of control | [3] 97 % of control | [4] 96 % of control | [5] 100 % of control | dose: 400.0 mg/kg/injection, schedule: Q01DX009 (ip), vehicle: Klucel (hydroxypropylcellulose) (HPC) 91 % of control | [6] 95 % of control

O=C(O)C1C2C=CC(O2)C1C(=O)NCc1cccnc1 (stereo not given)
inactive: [7] 106 % of control | [8] 94 % of control | [9] 95 % of control

CCOC(=O)c1cnc(SC)nc1Nc1c(Cl)cccc1Cl
inactive: dose: 100.0 mg/kg/injection, schedule: Q04DX003 (ip), vehicle: saline with Tween-80 96 % of control | dose: 200.0 mg/kg/injection, schedule: Q04DX003 (ip), vehicle: saline with Tween-80 94 % of control | dose: 400.0 mg/kg/injection, schedule: Q04DX003 (ip), vehicle: saline with Tween-80 94 % of control

Nc1cc2ccccc2c(Br)n1
inactive: [11] 110 % of control | dose: 100.0 mg/kg/injection, schedule: Q01DX009 (ip), vehicle: saline sonified 98 % of control | [12] 105 % of control | dose: 200.0 mg/kg/injection, schedule: Q01DX009 (ip), vehicle: saline sonified 93 % of control | [13] 100 % of control | dose: 400.0 mg/kg/injection, schedule: Q01DX009 (ip), vehicle: saline sonified 98 % of control

[Se]=P(C#Cc1ccccc1)(C#Cc1ccccc1)C#Cc1ccccc1
inactive: [11] 87 % of control | [12] 93 % of control | [13] 87 % of control

COC1=C(Cl)C(=O)C(OC)=C(Cl)C1=O
inactive: dose: 5.0 mg/kg/injection, schedule: Q01DX001 (ip), vehicle: saline 97 % of control | dose: 10.0 mg/kg/injection, schedule: Q01DX001 (ip), vehicle: saline 95 % of control | dose: 20.0 mg/kg/injection, schedule: Q01DX001 (ip), vehicle: saline 106 % of control | dose: 40.0 mg/kg/injection, schedule: Q01DX001 (ip), vehicle: saline 101 % of control

CC1(Br)C(=O)NC(=O)NC1O (stereo not given)
inactive: [14] 98 % of control | [10] 94 % of control | [4] 94 % of control

COCCOCCOCCOCCOCCN
inactive: dose: 100.0 mg/kg/injection, schedule: Q01DX009 (ip), vehicle: saline 96 % of control | dose: 200.0 mg/kg/injection, schedule: Q01DX009 (ip), vehicle: saline 93 % of control | dose: 400.0 mg/kg/injection, schedule: Q01DX009 (ip), vehicle: saline 98 % of control

C=C(Br)S(=O)(=O)C(=C)Br
inactive: dose: 6.25 mg/kg/injection, schedule: Q04DX002 (ip), vehicle: alcohol 101 % of control | dose: 12.5 mg/kg/injection, schedule: Q04DX002 (ip), vehicle: alcohol 111 % of control | dose: 25.0 mg/kg/injection, schedule: Q04DX002 (ip), vehicle: alcohol 101 % of control

CC1=NNC(=O)CC1
inactive: dose: 100.0 mg/kg/injection, schedule: Q04DX003 (ip), vehicle: saline 102 % of control | dose: 200.0 mg/kg/injection, schedule: Q04DX003 (ip), vehicle: saline 104 % of control | dose: 400.0 mg/kg/injection, schedule: Q04DX003 (ip), vehicle: saline 96 % of control

Cc1ccc(NC(=O)OC/C=C/c2ccccc2)c(Cl)c1
inactive: [10] 99 % of control | [4] 97 % of control

CCOC(=O)c1nn2c(C)nnc2s1
inactive: dose: 100.0 mg/kg/injection, schedule: Q01DX001 (ip), vehicle: carboxymethylcellulose (CMC) 98 % of control | dose: 200.0 mg/kg/injection, schedule: Q01DX001 (ip), vehicle: carboxymethylcellulose (CMC) 96 % of control | dose: 400.0 mg/kg/injection, schedule: Q01DX001 (ip), vehicle: carboxymethylcellulose (CMC) 98 % of control

Clc1cc(Cl)c2c(c1)COCO2
inactive: dose: 25.0 mg/kg/injection, schedule: Q01DX009 (ip), vehicle: Klucel (hydroxypropylcellulose) (HPC) 109 % of control | [14] 104 % of control | [10] 106 % of control | [3] 97 % of control | [5] 102 % of control | [6] 111 % of control
